One assay relates to HT29 cells. As to the kind of experiment: Cell cycle analysis, HT29. The format is cell-based, human. The following applies: HT29, 50 µM peptide. As for the experimental part: (§1) Three cell lines were used: C666-1 which is a native EBV-infected NPC-derived cell line constitutively expressing LMP1, HeLa cells transfected with native vector (Gpt) or harboring the cDNA encoding LMP1, and HT-29 which is a human colon cancer cell line All cells were maintained in RPMI medium 1640 supplemented with 5% (V/V) FBS (Gibco), 4 µg/mL Gentamycine and 2 mM L-glutamine at 37 °C in a humidified atmosphere of 5% CO2. These cell lines were kindly provided by Pr P. Busson (IGR-France).
Cell cycle analysis of C666.1 and HT29 cells was performed using the FXcycleTm PIi/RNnase staining solution (Invitrogen). Briefly, cells (4 × 10^5) were seeded and grown for 24 hours, and then incubated with serum-free RPMI for another 24 hours (starvation) to decrease cell constitutive signaling. After starvation, cells were incubated or not with 50 µM B1.12 peptide (C666.1 and HT29 cells) or control peptide (C666.1 cells) for 48 hours. Following incubation, cells were washed with PBS, trypsinized and centrifuged at 1200 rpm for 5 minutes. The cell pellet was then washed twice with PBS, and cells were fixed with 5 mL of ethanol 70% for 24 hours at 4 °C. […] The data were collected and analyzed by an Attune NxT Flow Cytometer (Thermofisher).

For another assay, the system named is C666.1 cells. Description: MTT cell viability, C666.1. The format is cell-based. The following applies: increasing concentration to 200 µM, 48 h. As for the experimental part:
as §1
Cells were plated into 96-well plates until 80% confluent and then treated with different concentrations of B1.12 peptide (100, 200, 300 and 400 µM). After 48 hours of incubation, 20 μL MTT (5 mg/mL) were added to each well. After 4 hours, 100 μL dimethyl sulfoxide (DMSO) was added to each well, and absorbance was measured at […] using a Varioskan™ Flash Multimode Reader (Thermofisher Scientific). The percentage of cell viability was calculated using this formula:(OD590 nm of treated cells/OD590 nm of untreated cells) × 100.

The next assay has as its system B1 peptide. As to the kind of experiment: Competitive inhibition of phage B1.12 binding to B1 peptide. Details: species or system Epstein-Barr virus (EBV). The following applies: B1.12 phage 2 × 10^10 pfu, room temperature 1 hour. Here is the method: Binding of the B1.12 peptide to its target B1 and to HeLa/LMP1 cells was evaluated by a competitive binding assay. […] Then the B1.12 phage (2 × 10^10 pfu) was added to each well and incubated for 1 hour. After washing, the bound phage was detected by the anti-M13 antibody as described previously. For the competition test on HeLa cells expressing or not the viral oncoprotein LMP1, cells were seeded into 96-well plates (10^4 cells/well), washed twice in PBS, and fixed with 4% paraformaldehyde for 30 minutes at room temperature. Synthetic peptides at concentrations of 50, 75, 100 and 200 µM were incubated with the cells at 37 °C for 1 hour and the experiment was carried out as described above. All experiments were done in triplicate and the mean values of OD were used to calculate the rate of competitive inhibition according to the following formula: inhibition ratio = (OD control − OD phage)/OD control × 100, where OD control and OD phage represent the OD450 nm values of phage binding on cells incubated with PBS and with the peptide, respectively.

Assay [1] relates to B1 peptide (first extracellular loop of LMP1). Description: NMR titration of B1/B1.12 interaction. Format: binding, Epstein-Barr virus (EBV). The following applies: H2O/D2O (90:10), 500 MHz. As for the experimental part: The NMR experiments samples were prepared in 500 μL of H2O/D2O (90:10); using 1 mM of B1 peptide and 21 mM of B1.12 peptide. Titration experiment was also performed with varying the B1:B1.12 proportions (1:1; 3:1; 5:1; 7:1; 9:1). The NMR experiments were recorded on a Bruker spectrometer 500 MHz equipped with a TCI cryoprobe. Acquisition was performed with water suppression with excitation sculpting pulse sequence.

“Also recorded” adds a separate entry of the source. Residues, ends and D or L forms follow the SMILES beside them.

On to `CC(C)C[C@H](NC(=O)[C@H](CC(=O)O)NC(=O)[C@H](CC(C)C)NC(=O)[C@@H]1CCCN1C(=O)[C@H](CS)NC(=O)[C@H](C)N)C(=O)N[C@@H](CCCNC(=N)N)C(=O)N[C@@H](CO)C(=O)N1CCC[C@H]1C(=O)N[C@@H](CS)C(=O)NCC(N)=O` [B1.12] (H-ACPLDLRSPCG-NH2; N-terminus and C-terminus assumed), for which, in the assay on HT29 cells, the “cell cycle phases versus untreated (in words)” value was “the cell cycle phases still unchanged”. Moreover, the “cells in G0/G1 phase” value in the assay on HT29 cells (propidium iodide FACS, 24 h (48 h elsewhere in the source)) came to 78.3%. For the same compound, the “cell viability (in words)” value in the assay with C666.1 cells is “gradually decreases with increasing peptide concentration”. The “effect on binding of phage B1.12 to target B1” value in the assay on B1 peptide (increasing peptide concentration, triplicate) was “the inhibition ratio increased gradually”. Besides, the inhibition ratio entry in the assay with B1 peptide (peptide 400 µM, triplicate mean) was “approximately 43%”. Further, the “binding to target B1 (NMR)” value in assay [1] (1 mM B1, 21 mM B1.12) was “bound specifically to its target B1”. Further, the “B1 residues showing chemical shift variation” value in assay [1] (B1:B1.12 titration 1:1 to 9:1) is “Met2, Trp5 and Thr6; also recorded: Met^2, Trp^5 and Thr^6”.

Source of the values: PMC6416395, “B1.12: a novel peptide interacting with the extracellular loop of the EBV oncoprotein LMP1” (Scientific Reports, 2019).
